Experimental data: patent publication US11203582B2, “Benzamide derivatives for inhibiting endoplasmic reticulum (ER) stress” (The Board of Regents of the University of Oklahoma, priority 2017, dated 2021)

How the values were obtained:
Assay type in all cases: cell-based, rat
INS-1 cells = assay: TUNEL staining of Tm-treated INS-1 cells; conditions: co-treatment with Tm, 24 h
Description: (A) INS-1 cells were treated with or without Tm (0.1 m/mL) in the presence of 13d at indicated concentrations or DMSO for 24 h. Cleaved caspase-3 and PARP were determined by Western blotting. α-Tubulin was used as a loading control. The data shown are representative of 3 independent experiments. (B) INS-1 cells were treated with or without Tm (0.1 m/mL) in the presence of 13d (0.111M) or DMSO for 48 h, and live-cell phase-contrast images were acquired (magnification 10×). The images shown are representative of 3 independent experiments. (C) TUNEL staining of INS-1 cells. INS-1 cells were treated with 0.111 g/mL of Tm with or without compound 13d for 24 h before TUNEL staining. DAPI was used as a nuclear marker. Magnification is 20×. The images shown are representative of 3 independent experiments. (D) Quantification of TUNEL staining from 20 fields of images. ** P<0.01 compared with Tm treatment alone.
To determine whether the increase in β-cell viability following treatment with 13d is caused by a suppression of apoptotic cell death, several apoptosis-related makers were measured. First, levels of cleaved caspase-3 and cleaved PARP were assayed by Western blotting. […]

CHOP mRNA = assay: qRT-PCR of CHOP mRNA in INS-1 cells
Description: (§1) (A, B) INS-1 cells were treated with or without Tm (0.1 μg/mL) in the presence of 13d or DMSO for 8 h. ATF4 (A) and CHOP (B) mRNA levels were analyzed by qRT-PCR. Relative mRNA levels were normalized against the housekeeping gene Cyclophilin A using the comparative CT method. The results were expressed as the fold-increase over mRNA levels in untreated control cells and are the means of 3 replicate wells and representative of 3 independent experiments. ** P<0.01 compared with Tm treatment alone. Bar indicates SD. (C-E) INS-1 cells were treated with or without Tm (0.1 μg/mL) in the presence of 13d or DMSO for 8 hATF4 and CHOP protein levels were determined by Western blotting (C). α-Tubulin was used as an internal control. Quantification of ATF4 (D) and CHOP (E) protein levels was analyzed by ImageJ program, which was normalized by α-Tubulin protein level. The data shown are representative of 3 independent experiments.
Having established that compound 13d restores ER stress-impaired β-cell survival and function, we next investigated the mechanism of action by which 13d protects β-cells against ER stress. Chronic or severe ER stress activates all three branches of the UPR, PERK, IRE1α, and ATF6, leading to eventual cell death. First, we determined the effect of 13d on the activation of the PERK pathway in β-cells under ER stress. PERK activation phosphorylates eukaryotic translation initiator factor 2α (eIF2α), which in turn allows for the up-regulation of activating transcription factor 4 (ATF4) and of the pro-apoptotic gene C/EBP-homologous protein (CHOP). Thus, we used ATF4 and CHOP expression levels as markers of PERK pathway activation. […]
(§2) INS-1 cells were seeded at 4×10^5 cells/well in 6-well plates and treated with compounds for the indicated times. […] Relative mRNA levels were normalized against the housekeeping gene Cyclophilin A and were determined by ΔΔCt calculated from the difference in ΔCt values between the target gene and Cyclophilin A with and without treatment, based on comparative CT (cycle threshold) method. […]

INS2 mRNA = assay: qRT-PCR of INS2 mRNA in Tm-treated INS-1 cells; conditions: Tm co-treatment, 24 h
Description: (A-D) INS-1 cells were treated with or without Tm (0.1 m/mL) in the presence of 13d at indicated concentrations or DMSO for 24 h. The mRNA levels of INS1 (A), INS2 (B), PDX1 (C), and MafA (D), were analyzed by qRT-PCR. Relative mRNA levels were normalized against the housekeeping gene Cyclophilin A using the comparative CT method. The results are the means of 3 replicate wells and are representative of 3 independent experiments. * P<0.05 and ** P<0.01 compared with Tm treatment alone. Bars indicate SD. (E) Insulin secretion by INS-1 cells incubated with 1.7 mM and 20 mM glucose in the presence or absence of Tm (0.1 μg/mL) and 13d. Secreted insulin was measured by ELISA after 24 h treatment. * P<0.05. The amount of insulin secreted in response to 1.7 mM glucose in the absence of Tm was set to 1.0 and was normalized with total protein concentration.
as §2

ATF4 mRNA = assay: qRT-PCR of ATF4 mRNA in INS-1 cells
Description: as §1
Having established that compound 13d restores ER stress-impaired β-cell survival and function, we next investigated the mechanism of action by which 13d protects β-cells against ER stress. Chronic or severe ER stress activates all three branches of the UPR, PERK, IRE1α, and ATF6, leading to eventual cell death. First, we determined the effect of 13d on the activation of the PERK pathway in β-cells under ER stress. […]

## O=C(NCc1ccc(C(F)(F)F)cc1)c1cccc(CN2CCCCC2)c1 [Compound 13d, N-(4-trifluoromethylphenmethyl)-3-(N-piperidinyl)methyl benzamide]
INS-1 cells
  TUNEL-positive cells: 0.5%
CHOP mRNA; Tm 0.1 μg/mL co-treatment, 8 h
  Tm-induced increase in CHOP mRNA level: almost completely abolished
CHOP mRNA; Tm, 8 h, read-out: IC50 for inhibition of Tm-induced CHOP expression
  IC50: 0.037 µM
CHOP mRNA; without Tm
  effect on CHOP mRNA level on its own: no effect
INS2 mRNA
  Tm-suppressed INS2 mRNA level: completely rescued
ATF4 mRNA; Tm 0.1 μg/mL co-treatment, 8 h
  Tm-induced increase in ATF4 mRNA level: almost completely abolished
ATF4 mRNA; without Tm
  effect on ATF4 mRNA level on its own: no effect
